Measurements: patent US20140080908A1, “COMPOSITIONS AND METHODS FOR IMPROVING OR […]-LIKE SYMPTOMS” (PHYTO TECH CORP., priority 2012, published 2014)

Legend:
C57BL/6J mice [1] = details: 30 mg/kg/day orally for 3 months (90 days); compared to calcium gluconate or vehicle; p<0.05; FIG. 2A
Experimental: (§1) Vehicle (saline) was administered to the third group of mice as a control. The animals were then subject to TST and FST.

C57BL/6J mice [2] = details: 30 mg/kg/day orally for 3 months (90 days); compared to calcium gluconate or vehicle; p<0.05; FIG. 2B
Experimental: In an FST, each mouse is placed in a separate acrylic glass cylinder that is filled with water (23-25° C.) to a level high enough to prevent the mouse from touching the bottom of the cylinder with his paws or tail, yet low enough to prevent the mouse from escaping through the top opening of the cylinder. The mice are thus forced to swim in the cylinders. […] FST is the most widely used as a screen for acute antidepressants, and the duration of immobility is the main parameter by which the effectiveness of an antidepressant treatment is measured.
as §1

[3] = in vivo; cited from earlier work
human bone marrow cells = details: 1, 2.5, 5 and 7 sec time points; every time point tested; FIG. 1

O=C(O)[C@H](O)[C@@H](O)CO (stereo in doubt) [calcium (2R, 3S)-2,3,4-trihydroxybutyric acid]
duration of immobility in TST (C57BL/6J mice [1]): significantly decreased duration of immobility
duration of immobility in FST (C57BL/6J mice [2]): significantly decreased duration of immobility
bioavailability compared to calcium gluconate, calcium acetate and calcium carbonate [3]: higher bioavailability
calcium absorption by human bone marrow cells relative to calcium gluconate (human bone marrow cells): approximately three times more
